In PMC6590626 (OncoTargets and therapy, 2019):

Target: T1, IKKβ (Homo sapiens, UniProt O14920)
T1 sequence (O14920 1-756): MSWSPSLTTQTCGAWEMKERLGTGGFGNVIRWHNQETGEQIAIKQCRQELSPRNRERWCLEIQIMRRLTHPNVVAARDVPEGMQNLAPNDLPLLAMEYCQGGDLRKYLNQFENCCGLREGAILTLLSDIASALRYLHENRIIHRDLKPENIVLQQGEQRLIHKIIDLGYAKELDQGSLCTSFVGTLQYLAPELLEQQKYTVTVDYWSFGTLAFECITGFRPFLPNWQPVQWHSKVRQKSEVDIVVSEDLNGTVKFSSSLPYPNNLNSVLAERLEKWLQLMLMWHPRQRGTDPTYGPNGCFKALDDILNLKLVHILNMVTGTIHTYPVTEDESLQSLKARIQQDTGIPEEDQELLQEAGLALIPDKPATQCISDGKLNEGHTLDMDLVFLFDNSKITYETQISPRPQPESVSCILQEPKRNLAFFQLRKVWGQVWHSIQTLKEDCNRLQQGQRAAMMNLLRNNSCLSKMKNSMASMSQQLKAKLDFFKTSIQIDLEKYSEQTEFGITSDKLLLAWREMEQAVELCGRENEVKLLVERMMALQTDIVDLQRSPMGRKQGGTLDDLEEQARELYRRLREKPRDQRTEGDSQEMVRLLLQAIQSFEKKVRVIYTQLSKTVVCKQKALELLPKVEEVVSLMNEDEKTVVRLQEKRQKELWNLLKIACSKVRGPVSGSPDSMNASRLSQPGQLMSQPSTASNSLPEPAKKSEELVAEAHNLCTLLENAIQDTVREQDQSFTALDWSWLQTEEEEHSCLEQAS
Experiment: SPR
Assay type: binding

Kd: 32 µM
SMILES: CC(C)C1=CC2=CC[C@@H]3[C@](C)(CCC[C@@]3(C)C(=O)O)[C@H]2CC1 [AA, Abietic acid]
